Results as given in patent publication US10703756B2, “Pyrrolo[2,3-D]pyrimidinyl, pyrrolo[2,3-B]pyrazinyl, pyrrolo[2,3-B]pyridinyl acrylamides and epoxides thereof” (Pfizer Inc., priority 2015, dated 2020).
pIC50: −log10 of the molar value.

Columns and labels:
JAK3 enzyme [1] = target: T1, JAK3 enzyme (Homo sapiens, UniProt P52333); assay: JAK Caliper Enzyme Assay at 4 μM ATP; format: biochemical
T1 sequence (P52333 1-1124): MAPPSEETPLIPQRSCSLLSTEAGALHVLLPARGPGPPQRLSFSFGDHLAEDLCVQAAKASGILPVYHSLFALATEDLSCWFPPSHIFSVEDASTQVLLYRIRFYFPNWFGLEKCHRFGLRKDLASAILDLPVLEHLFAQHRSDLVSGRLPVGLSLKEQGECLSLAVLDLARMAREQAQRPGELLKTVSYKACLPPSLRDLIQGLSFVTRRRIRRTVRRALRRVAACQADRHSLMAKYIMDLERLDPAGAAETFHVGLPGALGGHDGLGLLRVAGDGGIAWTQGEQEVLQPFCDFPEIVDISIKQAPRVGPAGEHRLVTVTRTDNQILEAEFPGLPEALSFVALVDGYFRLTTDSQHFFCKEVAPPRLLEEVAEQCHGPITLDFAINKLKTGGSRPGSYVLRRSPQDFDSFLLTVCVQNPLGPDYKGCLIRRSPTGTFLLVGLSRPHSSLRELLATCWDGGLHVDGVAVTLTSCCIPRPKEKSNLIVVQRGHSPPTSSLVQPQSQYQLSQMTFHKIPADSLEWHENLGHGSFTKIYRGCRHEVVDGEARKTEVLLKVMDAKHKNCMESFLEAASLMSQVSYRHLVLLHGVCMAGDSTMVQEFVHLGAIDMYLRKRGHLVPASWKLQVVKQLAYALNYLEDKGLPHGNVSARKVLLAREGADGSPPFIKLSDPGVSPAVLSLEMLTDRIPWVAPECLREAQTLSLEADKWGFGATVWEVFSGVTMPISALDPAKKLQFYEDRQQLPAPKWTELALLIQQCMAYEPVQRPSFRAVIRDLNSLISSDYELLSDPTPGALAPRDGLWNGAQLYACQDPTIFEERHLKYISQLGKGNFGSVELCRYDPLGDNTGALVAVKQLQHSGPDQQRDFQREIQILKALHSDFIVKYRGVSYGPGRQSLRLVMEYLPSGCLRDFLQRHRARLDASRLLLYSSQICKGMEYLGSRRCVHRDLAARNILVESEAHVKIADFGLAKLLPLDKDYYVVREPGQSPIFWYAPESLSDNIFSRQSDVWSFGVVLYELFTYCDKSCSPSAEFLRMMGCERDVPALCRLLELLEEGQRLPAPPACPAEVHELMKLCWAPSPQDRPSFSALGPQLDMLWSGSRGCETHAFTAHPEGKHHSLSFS
Procedure, shortened: (§1)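 Peptide phosphorylation by the kinase, adjusted to 20%-30% conversion, is measured by microfluidic separation of substrate and product on a Caliper LC3000. Compounds run as 11-point half-log series from a 600 μM DMSO top concentration.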

[2] = test system: IL-15 induced STAT5 phosphorylation in human whole blood lymphocytes; assay: HWB IL-15 Induced STAT5 Phosphorylation Assay; format: cell-based; settings: Lymphocyte, IL-15 final 50 ng/ml, read-out: HWB_IL15 pSTAT5 IC50
Experimental: HWB IL-15 Induced STAT5 Phosphorylation Assay
After serial dilution of the test compounds 1:2 in DMSO at desired concentration (500× of final), the compounds were further diluted in PBS (by adding 4 μL compound/DMSO in 96 μL PBS, [DMSO]=4%, 20× final). To 96-well polypropylene plates were added 90 μl HWB (heparin treated Human Whole Blood)/well, followed by 5 μl/well 4% DMSO in D-PBS or various concentrations of 20× inhibitor in 4% DMSO in D-PBS (w/o Ca^+2 or Mg^+2) to give 1× in 0.2% DMSO. After mixing and incubating for 45 minutes at 37° C., 5 μl D-PBS (unstimulated control) or 20× stocks of 5 μl human IL-15 (final concentration is 50 ng/ml) were added, and mixed three times. After incubating 15 minutes at 37° C., 1× Lyse/Fix Buffer (BD Phosflow 5× Lyse/Fix Buffer) was added to all wells at 1000 μl/well, then incubated for 20 minutes at 37° C. and spun 5 mins at 1200 rpm. After washing in 1000 μl FACS buffer 1× and spinning for 5 mins at 1200 rpm, 400 μl ice cold Perm Buffer III were added to each well. After mixing gently (1-2×) and incubating on ice for 30 minutes, spinning for 5 mins at 1200 rpm without interruption, and washing 1× in cold […] FACS buffer (D-PBS containing 0.1% BSA and 0.1% sodium azide) 250 μl/well of the desired AlexaFluor647-conjugated anti-phospho STATS antibody at 1:125 dilution in FACS buffer was added. Following incubating at 4° C. over night, all the samples were transferred to 96-well polypropylene U-bottom plate, and checked by flow cytometry gated on total lymphocytes.

[3] = test system: IL-15 induced P-STAT5 in human PBMC; assay: PBMC IL-15 Induced P-STAT5; format: cell-based; settings: human PBMC, IL-15 final 41 ng/mL; read-out: PBMC IL15_pSTAT5_IC50
Procedure, shortened: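 Flow cytometry gated on total lymphocytes measured STAT5 staining (Alexa Fluor 647 antibody, overnight, 4 °C) in fixed, methanol-permeabilised human PBMC. Cells had received compound for 15 min at 37 °C (0.2% DMSO final), followed by 41 ng/mL final human IL-15 for 15 min.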

JAK3 enzyme [4] = target: T1, JAK3 enzyme; assay: JAK Caliper Enzyme Assay at 1 mM ATP; format: biochemical
Procedure, shortened: as §1

Row | SMILES | pIC50 (JAK3 enzyme [1]) | pIC50 [2] | pIC50 [3] | pIC50 (JAK3 enzyme [4])
1 | C=CC(=O)N1CCC(Nc2cnc3[nH]cc(C(=O)NCc4sc(C)nc4C(F)(F)F)c3n2)CC1 [Example 195, 2-[(1-acryloylpiperidin-4-yl)amino]-N-{[2-methyl-4-(trifluoromethyl)-1,3-thiazol-5-yl]methyl}-5H-pyrrolo[2,3-b]pyrazine-7-carboxamide] | 9.31 | 6.16 | 7.08 | 8.15
2 | C=CC(=O)N1CCC(Oc2cnc3[nH]cc(C(=O)NCCC(F)(F)F)c3n2)CC1 [Example 198, 2-[(1-acryloylpiperidin-4-yl)oxy]-N-(3,3,3-trifluoropropyl)-5H-pyrrolo[2,3-b]pyrazine-7-carboxamide] | 9.44 | 5.85 | 6.60 | 7.28
3 | C=CC(=O)N1CCC(Oc2cnc3[nH]cc(C(=O)N[C@@H]4CC[C@H](F)C4)c3n2)CC1 [Example 199, 2-[(1-acryloylpiperidin-4-yl)oxy]-N-[(1R,3S)-3-fluorocyclopentyl]-5H-pyrrolo[2,3-b]pyrazine-7-carboxamide] | 9.38 | 5.69 | 6.60 | 7.33
4 | C=CC(=O)N1CCC(Oc2cnc3[nH]cc(C(=O)NCCOC)c3n2)CC1 [Example 211, 2-[(1-acryloylpiperidin-4-yl)oxy]-N-(2-methoxyethyl)-5H-pyrrolo[2,3-b]pyrazine-7-carboxamide] | 9.30 | 5.76 | 6.40 | 7.13
5 | C=CC(=O)N1CCC(Oc2cnc3[nH]cc(C(=O)NCC(C)C)c3n2)CC1 [Example 222, 2-[(1-acryloylpiperidin-4-yl)oxy]-N-(2-methylpropyl)-5H-pyrrolo[2,3-b]pyrazine-7-carboxamide] | 9.42 | 5.99 | 6.55 | 7.28
6 | C=CC(=O)N1CCN(c2cnc3[nH]cc(C(=O)NCC4CCCC4)c3n2)CC1 [Example 266, 2-(4-acryloylpiperazin-1-yl)-N-(cyclopentylmethyl)-5H-pyrrolo[2,3-b]pyrazine-7-carboxamide] | 9.70 | 6.28 | 7.19 | 7.66
7 | C=CC(=O)N1CC[C@@H](Nc2cnc3[nH]cc(C(=O)NCCC(F)(F)F)c3n2)[C@@H](OC)C1 [Example 278, 2-{[(3S,4R)-1-acryloyl-3-methoxypiperidin-4-yl]amino}-N-(3,3,3-trifluoropropyl)-5H-pyrrolo[2,3-b]pyrazine-7-carboxamide] | 8.91 | 5.61 | 6.57 | 7.15
8 | C=CC(=O)N1CCN(c2cnc3[nH]cc(C(=O)NC4CC(F)(F)C4)c3n2)CC1 [Example 283, 2-(4-acryloylpiperazin-1-yl)-N-(3,3-difluorocyclobutyl)-5H-pyrrolo[2,3-b]pyrazine-7-carboxamide] | 9.29 | 5.92 | 6.59 | 7.01
9 | C=CC(=O)N1CCN(c2cnc3[nH]cc(C(=O)NC4CCC4)c3n2)CC1 [Example 297, 2-(4-acryloylpiperazin-1-yl)-N-cyclobutyl-5H-pyrrolo[2,3-b]pyrazine-7-carboxamide] | 9.37 | 6.14 | 6.82 | 7.35
10 | C=CC(=O)N1CCC(C)(Nc2cnc3[nH]cc(C(=O)NCC(C)C)c3n2)CC1 [Example 301, 2-[(1-acryloyl-4-methylpiperidin-4-yl)amino]-N-(2-methylpropyl)-5H-pyrrolo[2,3-b]pyrazine-7-carboxamide] | 9.37 | 5.52 | 6.41 | 7.36
11 | C=CC(=O)N1CCN(c2cnc3[nH]cc(C(=O)NCC(C)(C)C)c3n2)CC1 [Example 304, 2-(4-acryloylpiperazin-1-yl)-N-(2,2-dimethylpropyl)-5H-pyrrolo[2,3-b]pyrazine-7-carboxamide] | 9.71 | 6.28 | 7.01 | 7.54
12 | C=CC(=O)N1CC[C@H](Nc2cnc3[nH]cc(C(=O)NCCC(F)(F)F)c3n2)[C@H](OC)C1 [Example 305, 2-{[(3R,4S)-1-acryloyl-3-methoxypiperidin-4-yl]amino}-N-(3,3,3-trifluoropropyl)-5H-pyrrolo[2,3-b]pyrazine-7-carboxamide] | 9.30 | 5.19 | 6.56 | 7.28
13 | C=CC(=O)N1CC[C@@H](Nc2cnc3[nH]cc(C(=O)NCCCC(F)(F)F)c3n2)[C@@H](OC)C1 [Example 308, 2-{[(3S,4R)-1-acryloyl-3-methoxypiperidin-4-yl]amino}-N-(4,4,4-trifluorobutyl)-5H-pyrrolo[2,3-b]pyrazine-7-carboxamide] | 9.27 | 6.11 | 6.51 | 7.32
14 | C=CC(=O)N1CC[C@@H](Nc2cnc3[nH]cc(C(=O)N[C@@H](C)COC)c3n2)[C@@H](OC)C1 [Example 312, 2-{[(3S,4R)-1-acryloyl-3-methoxypiperidin-4-yl]amino}-N-[(2S)-1-methoxypropan-2-yl]-5H-pyrrolo[2,3-b]pyrazine-7-carboxamide] | 8.98 | 6.15 | 6.51 | 7.25
15 | C=CC(=O)N1CC[C@@H](Nc2cnc3[nH]cc(C(=O)NCC4CCCC4)c3n2)[C@@H](OC)C1 [Example 313, 2-{[(3S,4R)-1-acryloyl-3-methoxypiperidin-4-yl]amino}-N-(cyclopentylmethyl)-5H-pyrrolo[2,3-b]pyrazine-7-carboxamide] | 9.13 | 6.01 | 6.61 | 7.34
16 | C=CC(=O)N1CCN(c2cnc3[nH]cc(C(=O)N[C@H](CC)CC#N)c3n2)CC1 [Example 315, 2-(4-acryloylpiperazin-1-yl)-N-[(2R)-1-cyanobutan-2-yl]-5H-pyrrolo[2,3-b]pyrazine-7-carboxamide] | 9.46 | 6.68 | 7.13 | 7.59
17 | C=CC(=O)N1CC[C@@H](Nc2cnc3[nH]cc(C(=O)N[C@@H]4C[C@H]4C(F)(F)F)c3n2)[C@@H](OC)C1 [Example 316, 2-{[(3S,4R)-1-acryloyl-3-methoxypiperidin-4-yl]amino}-N-[(1R,2R)-2-(trifluoromethyl)cyclopropyl]-5H-pyrrolo[2,3-b]pyrazine-7-carboxamide] | 9.19 | 5.84 | 6.53 | 6.89
